Three compounds from patent publication EP4759812A1 (Guangzhou Lupeng Pharmaceutical Co., Ltd., priority 2023, dated 2025) can be followed below.

What all share (format): physicochemical
Data set [1] can be described thus: Influencing factor stability: light exposure test. The settings on record: Visible light 4500 Lux ± 500 Lux; for Crystal form: ultraviolet light 1.7 W*h/m^2 (25°C, RH 60%±5%), XRPD; for Purity: HPLC, starting purity: Crystal form VI 99.32%, Amorphous form 98.80%, Crystal form XIII 99.01%. On the procedure: (§1) The crystal form results under different conditions were identified by XRPD analysis, and the purity results under different conditions were identified by HPLC analysis.
(§2) The above samples were then taken on days 5, 10, 15, and 30, respectively. Their crystal forms were tested by adopting X-ray powder diffraction (XRPD), and the sample purities were tested by adopting HPLC. […]

Data set [2] can be described thus: Influencing factor stability: high-humidity test. The settings on record: Temperature 25°C, relative humidity 92.5±5%; for Purity: HPLC, starting purity: Crystal form VI 99.32%, Amorphous form 98.80%, Crystal form XIII 99.01%; for Crystal form: XRPD. As for the experimental part: as §1, §2
Data set [3] can be described thus: Dynamic vapor sorption (DVS) experiment. The settings on record: for Adsorption weight gain (80% RH) / Adsorption weight gain (95% RH): DVS; for Hygroscopicity: class per Chinese Pharmacopoeia 2010 guidance (25±0.2°C, 80% relative humidity).
Data set [4] can be described thus: Influencing factor stability: high-temperature test. The settings on record: Temperature 60°C; for Purity: HPLC, starting purity: Crystal form VI 99.32%, Amorphous form 98.80%, Crystal form XIII 99.01%; for Crystal form: XRPD. On the procedure: as §1, §2
Data set [5] in a line: Stability test in pure water and buffer solution (suspension, XRPD). The settings on record: 25°C, stirred 24 h, solid by XRPD. On the procedure: The suspensions were stirred at 25°C for 24 h, and filtered to obtain the solids. Samples were taken for XRPD measurement. […]
Data set [6] can be described thus: Morphological comparison under polarizing light microscope. The settings on record: for dispersibility and flowability / agglomeration and caking: judged from polarizing light microscope images; for crystal morphology: polarizing light microscope.
Setting [7] is: ultraviolet light 1.7 W*h/m^2, 5 days.
Where [8] appears, read: ultraviolet light 1.7 W*h/m^2, 10 days.
The mark [9] stands for this setting: ultraviolet light 1.7 W*h/m^2, 15 days.
Where [10] appears, read: ultraviolet light 1.7 W*h/m^2, 30 days.

The structures appear in SMILES notation.

Regarding `C=CC(=O)Nc1cc(Nc2nc(-c3ccnc(N4CCn5c(cc6c5CC(C)(C)C6)C4=O)c3CO)cn(C)c2=O)ccc1N1CCN(C2CCOCC2)C[C@@H]1C` [Amorphous form, (S)-N-(5-((6-(2-(7,7-dimethyl-1-oxo-1,3,4,6,7,8-hexahydro-2H-cyclopenta[4,5]pyrrolo[1,2-a]pyrazin-2-yl)-3-(hydroxymethyl)pyridin-4-yl)-4-methyl-3-oxo-3,4-dihydropyrazin-2-yl)amino)-2-(2-methyl-4-(tetrahydro-2H-pyran-4-yl)piperazin-1-yl)phenyl)acrylamide], the Crystal form result in data set [1] (5 days), in data set [1] (10 days), in data set [1] (15 days), in data set [1] (30 days), in data set [2] (5 days) and in data set [2] (10 days) was “Amorphous form” in each case. Also, the Crystal form entry in data set [2] (15 days), in data set [2] (30 days), in data set [4] (5 days), in data set [4] (10 days), in data set [4] (15 days) and in data set [4] (30 days) was “Amorphous form” throughout. Besides, the Purity in data set [1] (setting [7]) came out at 98.46%; in data set [1] (setting [8]), 97.98%; in data set [1] (setting [9]), 97.29%; in data set [1] (setting [10]), 96.55%; in data set [2] (5 days), 98.72%; in data set [2] (10 days), 98.50%. For the same compound, the Purity stood at 98.38% in data set [2] (15 days); 98.21% in data set [2] (30 days); 98.61% in data set [4] (5 days); 98.44% in data set [4] (10 days); 98.39% in data set [4] (15 days); 97.88% in data set [4] (30 days). The “Adsorption weight gain (80% RH)” value in data set [3] is reported as 4.55%; in data set [3] (listed as amorphous form) it was “about 4.55%”. In addition, the “Adsorption weight gain (95% RH)” value is 6.76% in data set [3] and “about 6.76%” in data set [3] (listed as amorphous form). The Hygroscopicity entry in data set [3] was “Hygroscopic (hygroscopic weight gain is less than 15% but not less than 2%)”; in data set [3] (listed as amorphous form), “hygroscopic”. In addition, the Suspension result in data set [5] (Pure water), in data set [5] (pH 4.5 buffer solution) and in data set [5] (pH 6.8 buffer solution) was “Transform into other crystal forms” each time. Further, the “dispersibility and flowability / agglomeration and caking” value in data set [6] is “significant agglomeration and caking”. Besides, the crystal morphology entry in data set [6] is “irregular glassy state”.

Regarding `C=CC(=O)Nc1cc(Nc2nc(-c3ccnc(N4CCn5c(cc6c5CC(C)(C)C6)C4=O)c3CO)cn(C)c2=O)ccc1N1CCN(C2CCOCC2)C[C@@H]1C` [Crystal form XIII, (S)-N-(5-((6-(2-(7,7-dimethyl-1-oxo-1,3,4,6,7,8-hexahydro-2H-cyclopenta[4,5]pyrrolo[1,2-a]pyrazin-2-yl)-3-(hydroxymethyl)pyridin-4-yl)-4-methyl-3-oxo-3,4-dihydropyrazin-2-yl)amino)-2-(2-methyl-4-(tetrahydro-2H-pyran-4-yl)piperazin-1-yl)phenyl)acrylamide], the Crystal form result in data set [1] (5 days), in data set [1] (10 days), in data set [1] (15 days), in data set [1] (30 days), in data set [2] (5 days) and in data set [2] (10 days) was “Crystal form XIII” in each case. The Crystal form result was “Crystal form XIII” in data set [2] (15 days); “Crystal form XIII” in data set [2] (30 days); “Transform into other crystal forms” in data set [4] (5 days); “Transform into other crystal forms” in data set [4] (10 days); “Transform into other crystal forms” in data set [4] (15 days); “Transform into other crystal forms” in data set [4] (30 days). Moreover, the Purity came to 98.65% in data set [1] (setting [7]); 98.32% in data set [1] (setting [8]); 97.76% in data set [1] (setting [9]); 97.15% in data set [1] (setting [10]); 98.92% in data set [2] (5 days); 98.86% in data set [2] (10 days). The Purity amounted to 98.81% in data set [2] (15 days); 98.77% in data set [2] (30 days); 98.79% in data set [4] (5 days); 98.54% in data set [4] (10 days); 98.20% in data set [4] (15 days); 97.85% in data set [4] (30 days). Further, the “Adsorption weight gain (80% RH)” value in data set [3] is on record as 6.53%; in data set [3] (listed as crystal form XIII), “about 6.53%”. The “Adsorption weight gain (95% RH)” value in data set [3] is on record as 14.45%; in data set [3] (listed as crystal form XIII) it was “about 14.45%”. Besides, the Hygroscopicity entry is on record as “Hygroscopic (hygroscopic weight gain is less than 15% but not less than 2%)” in data set [3] and “hygroscopic” in data set [3] (listed as crystal form XIII). Also, the Suspension result in data set [5] (Pure water), in data set [5] (pH 4.5 buffer solution) and in data set [5] (pH 6.8 buffer solution) was “Transform into other crystal forms” in each case. Besides, in data set [6], the “dispersibility and flowability / agglomeration and caking” value was “relatively poor flowability”. Besides, the crystal morphology entry in data set [6] was “fine”.

For `C=CC(=O)Nc1cc(Nc2nc(-c3ccnc(N4CCn5c(cc6c5CC(C)(C)C6)C4=O)c3CO)cn(C)c2=O)ccc1N1CCN(C2CCOCC2)C[C@@H]1C` [Crystal form V, (S)-N-(5-((6-(2-(7,7-dimethyl-1-oxo-1,3,4,6,7,8-hexahydro-2H-cyclopenta[4,5]pyrrolo[1,2-a]pyrazin-2-yl)-3-(hydroxymethyl)pyridin-4-yl)-4-methyl-3-oxo-3,4-dihydropyrazin-2-yl)amino)-2-(2-methyl-4-(tetrahydro-2H-pyran-4-yl)piperazin-1-yl)phenyl)acrylamide], the Suspension result in data set [5] (pH 4.5 buffer solution) and in data set [5] (pH 6.8 buffer solution) was “Transform into other crystal forms” in each case.
